PubChem BioAssay (NCI)
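The compound was tested at five concentrations on cells cultured in 96-well plates, with a 48-hour exposure period. TGI is the concentration that stops growth completely.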

Key:
Assay in all cases: NCI tumour cell line growth inhibition, 48 h
786-0 renal = system: 786-0 renal
A549 NSCLC = system: A549 NSCLC
ACHN renal = system: ACHN renal
BT-549 breast = system: BT-549 breast
CAKI-1 renal = system: CAKI-1 renal
COLO 205 colon = system: COLO 205 colon
DU-145 prostate = system: DU-145 prostate
EKVX NSCLC = system: EKVX NSCLC
HCC-2998 colon = system: HCC-2998 colon
HCT-116 colon = system: HCT-116 colon
HCT-15 colon = system: HCT-15 colon
HL-60(TB) leukemia = system: HL-60(TB) leukemia
HOP-62 NSCLC = system: HOP-62 NSCLC
HOP-92 NSCLC = system: HOP-92 NSCLC
HS 578T breast = system: HS 578T breast
HT29 colon = system: HT29 colon
IGROV1 ovarian = system: IGROV1 ovarian
K-562 leukemia = system: K-562 leukemia
KM12 colon = system: KM12 colon
LOX IMVI melanoma = system: LOX IMVI melanoma
M14 melanoma = system: M14 melanoma
MALME-3M melanoma = system: MALME-3M melanoma
MCF7 breast = system: MCF7 breast
MDA-MB-231 breast = system: MDA-MB-231 breast
MDA-MB-435 = system: MDA-MB-435
MDA-N = system: MDA-N
MOLT-4 leukemia = system: MOLT-4 leukemia
NCI-H226 lung = system: NCI-H226 lung
NCI-H23 lung = system: NCI-H23 lung
NCI-H460 lung = system: NCI-H460 lung
NCI-H522 lung = system: NCI-H522 lung
NCI/ADR-RES ovarian = system: NCI/ADR-RES ovarian
OVCAR-3 ovarian = system: OVCAR-3 ovarian
OVCAR-4 ovarian = system: OVCAR-4 ovarian
OVCAR-5 ovarian = system: OVCAR-5 ovarian
OVCAR-8 ovarian = system: OVCAR-8 ovarian
PC-3 prostate = system: PC-3 prostate
RPMI-8226 leukemia = system: RPMI-8226 leukemia
RXF 393 renal = system: RXF 393 renal
SF-268 CNS = system: SF-268 CNS
SF-295 CNS = system: SF-295 CNS
SF-539 CNS = system: SF-539 CNS
SK-MEL-2 melanoma = system: SK-MEL-2 melanoma
SK-MEL-28 melanoma = system: SK-MEL-28 melanoma
SK-MEL-5 melanoma = system: SK-MEL-5 melanoma
SK-OV-3 ovarian = system: SK-OV-3 ovarian
SN12C renal = system: SN12C renal
SNB-19 CNS = system: SNB-19 CNS
SNB-75 CNS = system: SNB-75 CNS
SR leukemia = system: SR leukemia
SW-620 colon = system: SW-620 colon
T-47D breast = system: T-47D breast
TK-10 renal = system: TK-10 renal
U251 CNS = system: U251 CNS
UACC-257 melanoma = system: UACC-257 melanoma
UACC-62 melanoma = system: UACC-62 melanoma
UO-31 renal = system: UO-31 renal
CCRF-CEM leukemia = system: CCRF-CEM leukemia

## O=C1C=C(Br)c2c(Br)sc(Br)c21
786-0 renal
  TGI: > 19.6 µM
A549 NSCLC
  TGI: > 77.3 µM
ACHN renal
  TGI: 15.3 µM
BT-549 breast
  TGI: 17 µM
CAKI-1 renal
  TGI: 26.6 µM
COLO 205 colon
  TGI: 15.9 µM
DU-145 prostate
  TGI: 29 µM
EKVX NSCLC
  TGI: 37.3 µM
HCC-2998 colon
  TGI: 28.1 µM
HCT-116 colon
  TGI: 30.4 µM
HCT-15 colon
  TGI: 20.5 µM
HL-60(TB) leukemia
  TGI: 29.2 µM
HOP-62 NSCLC
  TGI: > 79.9 µM
HOP-92 NSCLC
  TGI: 7.64 µM
HS 578T breast
  TGI: > 100 µM
HT29 colon
  TGI: 44.5 µM
IGROV1 ovarian
  TGI: 16.5 µM
K-562 leukemia
  TGI: > 36.7 µM
KM12 colon
  TGI: 37.3 µM
LOX IMVI melanoma
  TGI: 5.77 µM
M14 melanoma
  TGI: 15 µM
MALME-3M melanoma
  TGI: 35.2 µM
MCF7 breast
  TGI: 17.4 µM
MDA-MB-231 breast
  TGI: 33.9 µM
MDA-MB-435
  TGI: 42.9 µM
MDA-N
  TGI: > 52 µM
MOLT-4 leukemia
  TGI: 12.2 µM
NCI-H226 lung
  TGI: 98.8 µM
NCI-H23 lung
  TGI: 25.6 µM
NCI-H460 lung
  TGI: > 61.8 µM
NCI-H522 lung
  TGI: 3.99 µM
NCI/ADR-RES ovarian
  TGI: > 53.8 µM
OVCAR-3 ovarian
  TGI: 31.4 µM
OVCAR-4 ovarian
  TGI: 34.4 µM
OVCAR-5 ovarian
  TGI: 41.3 µM
OVCAR-8 ovarian
  TGI: 12.1 µM
PC-3 prostate
  TGI: 26.4 µM
RPMI-8226 leukemia
  TGI: > 100 µM
RXF 393 renal
  TGI: 25.7 µM
SF-268 CNS
  TGI: > 57.3 µM
SF-295 CNS
  TGI: 99.4 µM
SF-539 CNS
  TGI: 18.2 µM
SK-MEL-2 melanoma
  TGI: 49.3 µM
SK-MEL-28 melanoma
  TGI: > 56.2 µM
SK-MEL-5 melanoma
  TGI: 31.4 µM
SK-OV-3 ovarian
  TGI: 64.3 µM
SN12C renal
  TGI: 38.3 µM
SNB-19 CNS
  TGI: 35.7 µM
SNB-75 CNS
  TGI: 39.7 µM
SR leukemia
  TGI: > 100 µM
SW-620 colon
  TGI: > 20.6 µM
T-47D breast
  TGI: 31.4 µM
TK-10 renal
  TGI: 23.5 µM
U251 CNS
  TGI: 41.3 µM
UACC-257 melanoma
  TGI: 12.6 µM
UACC-62 melanoma
  TGI: 29.2 µM
UO-31 renal
  TGI: 10.3 µM

## CCOC(=O)/C=C(\C(=O)OCC)n1ccc(N)nc1=O
786-0 renal
  TGI: > 100 µM
A549 NSCLC
  TGI: > 100 µM
ACHN renal
  TGI: > 100 µM
BT-549 breast
  TGI: > 100 µM
CAKI-1 renal
  TGI: > 100 µM
CCRF-CEM leukemia
  TGI: 60.5 µM
COLO 205 colon
  TGI: > 100 µM
DU-145 prostate
  TGI: > 100 µM
EKVX NSCLC
  TGI: > 100 µM
HCC-2998 colon
  TGI: > 100 µM
HCT-116 colon
  TGI: > 100 µM
HCT-15 colon
  TGI: > 100 µM
HL-60(TB) leukemia
  TGI: > 100 µM
HOP-62 NSCLC
  TGI: > 100 µM
HOP-92 NSCLC
  TGI: > 100 µM
HS 578T breast
  TGI: > 100 µM
HT29 colon
  TGI: > 100 µM
IGROV1 ovarian
  TGI: > 100 µM
K-562 leukemia
  TGI: > 100 µM
KM12 colon
  TGI: > 100 µM
LOX IMVI melanoma
  TGI: > 100 µM
M14 melanoma
  TGI: > 100 µM
MALME-3M melanoma
  TGI: > 100 µM
MCF7 breast
  TGI: > 100 µM
MDA-MB-231 breast
  TGI: > 100 µM
MDA-MB-435
  TGI: > 100 µM
MDA-N
  TGI: > 100 µM
MOLT-4 leukemia
  TGI: > 100 µM
NCI-H226 lung
  TGI: > 100 µM
NCI-H23 lung
  TGI: > 100 µM
NCI-H460 lung
  TGI: > 100 µM
NCI-H522 lung
  TGI: 40.8 µM
NCI/ADR-RES ovarian
  TGI: > 100 µM
OVCAR-3 ovarian
  TGI: > 100 µM
OVCAR-4 ovarian
  TGI: > 100 µM
OVCAR-5 ovarian
  TGI: > 100 µM
OVCAR-8 ovarian
  TGI: > 100 µM
PC-3 prostate
  TGI: > 100 µM
RPMI-8226 leukemia
  TGI: > 100 µM
SF-268 CNS
  TGI: > 100 µM
SF-295 CNS
  TGI: > 100 µM
SF-539 CNS
  TGI: > 100 µM
SK-MEL-2 melanoma
  TGI: > 100 µM
SK-MEL-5 melanoma
  TGI: > 100 µM
SK-OV-3 ovarian
  TGI: > 100 µM
SN12C renal
  TGI: > 100 µM
SNB-19 CNS
  TGI: > 100 µM
SNB-75 CNS
  TGI: > 100 µM
SR leukemia
  TGI: > 100 µM
SW-620 colon
  TGI: > 100 µM
T-47D breast
  TGI: > 100 µM
TK-10 renal
  TGI: > 100 µM
U251 CNS
  TGI: > 100 µM
UACC-257 melanoma
  TGI: > 100 µM
UACC-62 melanoma
  TGI: > 100 µM
UO-31 renal
  TGI: > 100 µM
